Experimental data as given in patent US10138208B2, “Pyrazole derivatives as inhibitors of STAT3” (Mayo Foundation for Medical Education and Research, priority 2012, dated 2018).
Entries after “also recorded” stand apart in the source; their conditions may differ. Read-outs that look alike come from different tables or passages of the source.

Assays:
dBT114 cells = assay: Annexin V/propidium iodide apoptosis assay, dBT114; format: cell-based, human; settings: for cell death through apoptosis (Annexin V/PI flow cytometry): dBT114 (BT114) cells, dose dependent, 24 hours
Protocol: (§1) The compounds were tested for their effect on tumor cell viability by initiating apoptosis through Annexin V-FITC cell staining analysis. […] Cell death was most pronounced in DAOY cells, followed by BT114 and then HCT cells (FIG. 8). […] The difference in cell death between cell lines may reflect differences in STAT3 signaling between tumor cell types.
(§2) Apoptosis Assay: Analysis of cell death through an apoptosis pathway was determined using an Annexin V apoptosis detection kit (Calbiochem, Rockland, Mass.). dBT114, DAOY and HCT116 cells were plated in 6-well tissue culture plates at a density of 500 cells per well and allowed to reach 60% confluence prior to addition of test compounds for 24 hours. Floating and adherent cells were harvested and stained with FITC-labeled Annexin V and propidium iodide for 15 minutes at room temperature in the dark. The cells were then washed with cold binding buffer and immediately analyzed by flow cytometry for cells staining positive for both Annexin V and propidium iodide.

[1] = test system: medulloblastoma (DAOY) cells; assay: IncuCyte cell proliferation assay (confluence), DAOY; format: cell-based; settings: DAOY cells (FIG. 5A)
Protocol: (§3) Pyrazole-based inhibitors were tested for efficacy in stopping tumor cell growth by performing cell proliferation assays in glioblastoma (dBT114), medulloblastoma (DAOY) and human colorectal carcinoma (HCT116) cells lines. Tumor cells were plated in 96-well plates and varying concentrations of inhibitors or DMSO were added initially or after several log-growths of tumor cells. Cell proliferation was determined by measuring cell confluency using an automated system. […] Similar effects were found on tumor cell proliferation in DAOY and HCT116 tumor cell lines (FIG. 5, again only showing C6 data). The effects of C6 and C3 on tumor cell proliferation were compared to other previously characterized inhibitors, specifically, WP1066 (a Jak2 inhibitor) and LLL-12 (a direct STAT3 inhibitor).
(§4) IncuCyte Cell Proliferation Assay: Cell proliferation assays were performed on dBT114, DAOY and HCT116 cells using an IncuCyte 2011A microplate imager (Essen BioScience, Ann Arbor, Mich.). Cells were plated at a density of 3000 cells per well in a 96 well plate and allowed to reach exponential growth phase prior to the addition of test compounds. Cell confluence was measured optically every three hours for up to 90 hours.

[2] = test system: human colorectal carcinoma (HCT116) cells; assay: IncuCyte cell proliferation assay (confluence), HCT116; format: cell-based; settings: human colorectal carcinoma cell line HCT116 (FIG. 5B)
Protocol: as §3, §4

STAT3 [3] = target: T1, STAT3 (Homo sapiens, UniProt P40763); assay: IL-6 induced STAT3 phosphorylation, Western blot / densitometry, dBT114 cells; format: cell-based; settings: for IC50: densitometry of western blots (FIG. 12), read-out: half-maximal inhibitory concentration (IC50) for blocking STAT3 activation; for inhibition of STAT3 phosphorylation: IL-6, 10 μM, Western blot (FIG. 1); for dose dependence of inhibition of IL-6 induced STAT3 phosphorylation: increasing concentrations (FIG. 2)
T1 construct: To characterize changes in protein levels in whole cell lysates; endogenous in cells; host or cells: dBT114 (human GBM stem cell line)
Protocol: (§5) Compounds described herein can be tested for blocking the activation of phospho-STAT3 in vitro. […] The compounds were tested for inhibiting IL-6 induced phosphorylation of STAT3 in a human Glioblastoma GBM stem cell line (dBT114) and in the murine GBM cell line, GL261. IL-6 potently activates STAT3 phosphorylation in dBT114 cells but not as much in GL261 cells (FIG. 1), showing that GL261 cells have constitutively activated STAT3. […] A dose dependent decrease of IL-6 induced STAT3 phosphorylation in dBT114 cells using increasing concentrations of our compounds was observed, while no effect was seen on the levels of activated MAP kinase (FIG. 2).
Western Blot Analysis: Prior to analysis, cells were washed twice in cold phosphate buffered saline (PBS) and flash frozen in 200 μL of lysis buffer (50 mm/L NaCl, 50 mmol/L NaF, 50 mmol/L sodium pyrophosphate, 5 mmol/L EDTA, 5 mmol/L EGTA, 2 mmol/L Na3VO4, 1% Triton X-100, 0.5 mmol/L PMSF, […], 10 mmol/L HEPES, pH 7.4) in a ethanol/dry ice bath followed by scraping and a 5 second sonication to achieve a homogeneous solution. Sample protein concentrations were determined using the Bradford protein assay kit (Bio-Rad, Hercules, Calif.). To characterize changes in protein levels in whole cell lysates, 10 μg of total protein was size fractioned by 12% SDS-PAGE, transferred to nitrocellulose and stained with Ponceau-S stain to ensure equal protein loading. For Western blot analysis, membranes were incubated for 1 hour in blocking solution containing 1% dry milk in PBS-T, followed by an overnight incubation with either anti-Stat3 (Santa Cruz Biotechnology, Santa Cruz, Calif.,) or anti-Phospho-Stat3 (Santa Cruz). Nitrocellulose membranes were then incubated for 1 hour with horseradish peroxidase conjugated anti-IgG antibodies and visualized using Super Signal West Pico enhanced chemiluminescence detection (Thermo Scientific, Waltham, Mass.).
Western Densitometry—Determination of Half-Maximal Inhibitory Concentration for Activating STAT3: Dose Response Curves Half-maximal inhibitory concentrations for activating STAT3 (IC50 values) were calculated in BT114 cells from western blot data. The original western blot films were analyzed by densitometric analysis using the software program NIH Image (available at rsb.info.nih.gov/nih-image/). Standard dose-response curves were then created using the software program Prism 5.

[4] = test system: glioblastoma (dBT114) cells; assay: IncuCyte cell proliferation assay (confluence), dBT114; format: cell-based, human; settings: for dose-dependent inhibition of tumor cell proliferation: dBT114 cells (FIG. 4B); for effect on tumor cell growth kinetics (confluence): 50 μM (FIG. 4A)
Protocol: as §3, §4

HCT116 cells = assay: Annexin V/propidium iodide apoptosis assay, HCT116; format: cell-based, human; settings: HCT (HCT116) cells, dose dependent, 24 hours
Protocol: as §1, §2

[5] = test system: Normal Human Astrocytes (NHA); assay: MTT cell proliferation assay, normal human astrocytes; settings: 24 hour exposure, increasing concentrations, n=4 (FIG. 13)
Protocol: (§8) MTT Cell Proliferation Assay: Normal Human Astrocytes (Lonza) and human BT114 cells were plated at a density of 5000 cells per well in a 96-well tissue culture plate and incubated at 37° C. in the presence of 5% CO2 for 24 hours. Cell proliferation was determined using the CellTiter 96 Cell Proliferation Assay (Promega). After 24 hours cells were refed with normal media and MTT dye solution was added according to manufacturer's protocol. After 4 hours the reaction was stopped and absorbance was measured at 570 nm using a 96 well plate reader. […] (n=4).

DAOY cells [6] = assay: Annexin V/propidium iodide apoptosis assay, DAOY; format: cell-based; settings: dose dependent, 24 hours
Protocol: as §1, §2

DAOY cells [7] = assay: Uptake in living cells by confocal microscopy; format: cell-based; settings: live DAOY cells, 50 μM, 30 minutes, confocal microscopy (FIG. 9)
Protocol: Further, live DAOY cells were treated with 50 μM C9 for 30 minutes and then evaluated its uptake with confocal microscopy.

[8] = test system: Normal Human Astrocytes (NHA)
Protocol: as §8

STAT3 [9] = target: T2, STAT3 (Mus musculus, UniProt P42227); assay: STAT3 phosphorylation, Western blot, GL261 cells; format: cell-based, murine; settings: GL261 cells (constitutively activated STAT3), 10 μM, Western blot (FIG. 1)
T2 construct: endogenous in cells; host or cells: GL261 (murine GBM cell line)
Protocol: as §5
(§6) Western Blot Analysis: Prior to analysis, cells were washed twice in cold phosphate buffered saline (PBS) and flash frozen in 200 μL of lysis buffer (50 mm/L NaCl, 50 mmol/L NaF, 50 mmol/L sodium pyrophosphate, 5 mmol/L EDTA, 5 mmol/L EGTA, 2 mmol/L Na3VO4, 1% Triton X-100, 0.5 mmol/L PMSF, […], 10 mmol/L HEPES, pH 7.4) in a ethanol/dry ice bath followed by scraping and a 5 second sonication to achieve a homogeneous solution. Sample protein concentrations were determined using the Bradford protein assay kit (Bio-Rad, Hercules, Calif.). […]

PARP = PARP cleavage in dBT114 cells; format: cell-based, human; settings: various concentrations, 24 hours (FIG. 3, FIG. 10B)
Bcl-2 = assay: Downstream target of STAT3 transcription: Bcl-2 protein level in dBT114 cells; format: cell-based, human; settings: various concentrations, 24 hours (FIG. 3, FIG. 10B)
Protocol: (§7) STAT3 is a transcription factor that leads to the activation of several pro-proliferation proteins including Cyclin D1 and numerous anti-apoptotic proteins such as Bcl-2. To analyze the effects on the downstream targets of STAT3 transcription, Cyclin D1 and Bcl-2 protein levels were monitored after exposure to the compounds described. dBT114 cells were treated with various concentrations of C3, C10 or DMSO for 24 hours.
as §6, with “Calif.). To characterize changes in protein levels in whole cell lysates, 10 μg of total protein was size fractioned by 12% SDS-PAGE, transferred to nitrocellulose and stained with Ponceau-S stain to ensure equal protein loading.” for “Calif.).”

Cyclin D1 = assay: Downstream target of STAT3 transcription: Cyclin D1 protein level in dBT114 cells; format: cell-based, human; settings: various concentrations, 24 hours (FIG. 3)
Protocol: as §7
as §6, with “Calif.). To characterize changes in protein levels in whole cell lysates, 10 μg of total protein was size fractioned by 12% SDS-PAGE, transferred to nitrocellulose and stained with Ponceau-S stain to ensure equal protein loading.” for “Calif.).”

MAP kinase = assay: Activated MAP kinase levels, Western blot, dBT114 cells; format: cell-based, human; settings: increasing concentrations (FIG. 2)
Protocol: as §5, §6

T2 sequence (P42227 whole entry): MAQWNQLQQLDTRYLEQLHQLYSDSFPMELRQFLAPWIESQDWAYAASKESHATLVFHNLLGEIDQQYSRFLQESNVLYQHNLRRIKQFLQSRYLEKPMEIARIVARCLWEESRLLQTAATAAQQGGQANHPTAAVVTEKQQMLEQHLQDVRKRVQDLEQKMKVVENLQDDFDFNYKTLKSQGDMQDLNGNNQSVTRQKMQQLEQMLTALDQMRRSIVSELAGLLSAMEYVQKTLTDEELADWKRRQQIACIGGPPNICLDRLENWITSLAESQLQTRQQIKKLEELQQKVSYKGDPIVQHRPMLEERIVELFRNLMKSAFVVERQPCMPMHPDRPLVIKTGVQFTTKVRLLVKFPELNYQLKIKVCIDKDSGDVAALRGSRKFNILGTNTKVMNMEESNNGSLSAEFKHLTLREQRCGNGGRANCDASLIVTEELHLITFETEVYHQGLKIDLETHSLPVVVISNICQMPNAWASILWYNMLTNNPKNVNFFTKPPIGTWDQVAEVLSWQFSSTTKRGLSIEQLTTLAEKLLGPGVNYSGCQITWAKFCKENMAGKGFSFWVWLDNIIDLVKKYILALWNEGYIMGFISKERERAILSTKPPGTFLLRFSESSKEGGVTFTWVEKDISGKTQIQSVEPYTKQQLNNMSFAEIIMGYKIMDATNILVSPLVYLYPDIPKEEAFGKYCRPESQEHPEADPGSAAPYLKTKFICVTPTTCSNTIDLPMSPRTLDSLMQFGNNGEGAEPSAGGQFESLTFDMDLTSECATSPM
T1 sequence (P40763 whole entry): as the sequence (P42227 whole entry) above, with D760E counted along it

SMILES | relative potency in causing cell death (dBT114 cells; all cell lines tested (BT114, DAOY, HCT)) | cell death through apoptosis (Annexin V/PI flow cytometry) (dBT114 cells) | dose-dependent inhibition of tumor cell proliferation [1] | dose-dependent inhibition of tumor cell proliferation [2] | IC50 (STAT3 [3]) [nM] | dose-dependent inhibition of tumor cell proliferation [4] | effect on tumor cell growth kinetics (confluence) ([4]; dBT114 cells) | cellular proliferation, combination with temozolomide (TMZ) ([4]; dBT114 cells, C6 fixed 25 μM with increasing concentrations of TMZ (FIG. 7)) | cell death through apoptosis (Annexin V/PI flow cytometry) (HCT116 cells) | metabolic activity of normal human astrocytes [5] | cell death through apoptosis (Annexin V/PI flow cytometry) (DAOY cells [6]) | uptake and fluorescence in living cells (DAOY cells [7]) | metabolic activity of normal human astrocytes [8] | inhibition of STAT3 phosphorylation (STAT3 [9]) | cleavage of PARP (induction of apoptosis) (PARP) | Bcl-2 protein level (Bcl-2) | inhibition of STAT3 phosphorylation (STAT3 [3]) | dose dependence of inhibition of IL-6 induced STAT3 phosphorylation (STAT3 [3]) | Cyclin D1 protein level (Cyclin D1) | effect on levels of activated MAP kinase (MAP kinase)
CC(C)CCc1cc(-c2ccc(Br)cc2)n(-c2ccc(S(N)(=O)=O)cc2)n1 [C6, 5-(4-Bromophenyl)-3-(isopentyl)-1-(4-aminosulfonylphenyl)-1H-pyrazole] | more potent than C4 | cell death through apoptosis; also recorded: dose-dependent apoptosis | dose dependent inhibition | dose dependent inhibition | 13400 | dose-dependent inhibition; also recorded: dose dependent inhibition | profound effect | dose-dependent decrease | cell death through apoptosis | no clear pattern of increased or decreased metabolic activity | cell death through apoptosis | – | – | – | – | – | – | – | – | –
CC(C)CCc1cc(-c2ccccc2)nn1-c1ccc(S(N)(=O)=O)cc1 [C9, 3-(Phenyl)-5-(isopentyl)-1-(4-aminosulfonylphenyl)-1H-pyrazole] | – | – | – | – | – | – | – | – | – | – | – | strong uptake and fluorescence | – | – | – | – | – | – | – | –
NS(=O)(=O)c1ccc(-n2nc(Cc3ccc(NC(=O)COCC(=O)NCCCCCCCNC(=O)COCC(=O)Nc4ccc(Cc5cc(-c6ccc(Br)cc6)n(-c6ccc(S(N)(=O)=O)cc6)n5)cc4)cc3)cc2-c2ccc(Br)cc2)cc1 [C10, 3-[{2-[(7-{2-[((4-((5-(4-Bromophenyl)-1-(4-sulfamoylphenyl)-1H-pyrazol-3-yl)methyl)phenyl)aminocarbonyl)-methoxy]-acetylamino}-heptylaminocarbonyl)-methoxy]-acetyl}-(4-aminobenzyl)]-5-(4-bromophenyl)-1-(4-aminosulfonylphenyl)-1H-pyrazole] | – | dose-dependent apoptosis | – | – | 207 | – | – | – | – | – | – | – | no clear pattern of increased or decreased metabolic activity | potently inhibited; also recorded: blocked | increase | dose-dependent reduction | potently inhibited; also recorded: blocked | dose-dependent inhibition | decreased Cyclin D1 levels in a dose dependent fashion | no effect
CNC(=O)COCC(=O)Nc1ccc(Cc2cc(-c3ccc(Br)cc3)n(-c3ccc(S(N)(=O)=O)cc3)n2)cc1 [C3, 3-[{2-[(Methylaminocarbonyl)-methoxy]-acetyl}-(4-aminobenzyl)]-5-(4-bromophenyl)-1-(4-aminosulfonylphenyl)-1H-pyrazole] | – | dose-dependent apoptosis | – | – | 670 | dose-dependent inhibition | profound effect | – | – | – | – | – | no clear pattern of increased or decreased metabolic activity | potently inhibited; also recorded: blocked | cleavage of PARP; also recorded: increase | decreased Bcl-2 in a dose dependent fashion; also recorded: dose-dependent reduction | potently inhibited; also recorded: blocked | dose-dependent inhibition | – | no effect
CC(=O)Nc1ccc(Cc2cc(-c3ccc(Br)cc3)n(-c3ccc(S(N)(=O)=O)cc3)n2)cc1 [C4, 3-(4-Acetamidebenzyl)-5-(4-bromophenyl)-1-(4-aminosulfonylphenyl)-1H-pyrazole] | – | cell death through apoptosis; also recorded: dose-dependent apoptosis | – | – | > 50000 | dose-dependent inhibition | – | – | cell death through apoptosis | no clear pattern of increased or decreased metabolic activity | cell death through apoptosis | – | – | – | – | – | – | – | – | –
